Where two headings read alike, the source gives them in different places.
What was measured:
[1] = for depth of dye penetration: delivered with the device held 1 cm away from skin; for dye penetration: standard aerosol (piezoelectric transducer only) held 1 cm away
Text: A device having a configuration as disclosed in FIGS. 1-14 was used in a test along with a standard aerosol generated using only the piezoelectric transducer to compare dye penetration between the device and the aerosol. A mix of water and brilliant blue dye with a molecular weight of 792 Daltons was used to test penetration. Both the aerosol and the device were held 1 cm away from skin, and the solution was sprayed onto chicken and porcine skin-covered tissue. The skin and tissue were cut and dye penetration was measured. […] In between a range of 500 to 800 Daltons, there are a number of antibiotics, such as those used to treat skin and soft tissue infections. One example is ceftaroline, which is an antibiotic for Methicillin-resistant Staphylococcus aureus.

E. Coli DH5-α = test: Bacterial inhibition by antibiotics passed through the device (OD 600 nm); format: cell-based; conditions: azithromycin 5 mg/mL, vancomycin 15 mg/mL, streptomycin 20 mg/mL, 6 hours, 37°, versus same antibiotics not passed through device
Method: Inhibition of bacterial strain E. Coli DH5-α with antibiotics dissolved in deionized water was tested by passing the antibiotics and water through the device. The three antibiotics tested were azithromycin (5 mg/mL), vancomycin (15 mg/mL), and streptomycin (20 mg/mL). As a positive control, the same antibiotics (not passed through the device) were tested. Additional controls included deionized water, and deionized water passed through the device. After addition of 100 μl of antibiotics or deionized water into 8 mL of LB broth, 100 μl of bacterial stock at 0.5 OD at 600 nm was added. The experiment was performed with 4 biological replicates and 3 technical replicates, providing a sample size of n=12. Samples were incubated at 37° centigrade and 200 RPM in a shaker for 6 hours and then optical density was measured at 600 nm in a spectrophotometer.

[2] = for Droplette Hydration, improvement over starting hydration: left hand
Method: In yet another experiment, 4 human subjects volunteered to have about 50 μL of sterile distilled water sprayed into their hand and have hydration levels measured with a Corneometer CM825 device. Skin was visually inspected for any discoloration at the time of study and after 24 hours, and subject comfort was assessed and self-reported. A pen was used to draw circles denoting a delivery site (having a circle diameter of about 1.5 cm) on the backs of the right and left hands. Hydration in the circled regions for both the right and left hands was assessed at the start with a Corneometer CM 825. A device having a configuration as disclosed in FIGS. 1-14 was used for about 30 seconds to deliver about 50 μL sterile water to the left hand of each subject. After about 5 seconds of rest, the hand was blotted dry with a tissue. About 100 μL of sterile water was topically applied to the back of the right hand of each subject in the circled region and spread to cover that area. After about 5 seconds of rest, that hand was blotted dry with a tissue.

brilliant blue [brilliant blue dye]
depth of dye penetration ([1]; chicken tissue): 1.23 cm
depth of dye penetration ([1]; porcine tissue): 1 cm
dye penetration ([1]; chicken skin): did not penetrate either animal skin to any noticeable depth
dye penetration ([1]; porcine skin): did not penetrate either animal skin to any noticeable depth

CC[C@H]1OC(=O)[C@H](C)[C@@H](O[C@H]2C[C@@](C)(OC)[C@@H](O)[C@H](C)O2)[C@H](C)[C@@H](O[C@@H]2O[C@H](C)C[C@H](N(C)C)[C@H]2O)[C@](C)(O)C[C@@H](C)CN(C)[C@H](C)[C@@H](O)[C@]1(C)O [azithromycin]
bacterial inhibition after being passed through the device (E. Coli DH5-α): retained their native function

[H]/N=C(/N)N[C@H]1[C@H](O)[C@@H](O)[C@H](O[C@@H]2O[C@@H](C)[C@](O)(C=O)[C@H]2O[C@@H]2O[C@@H](CO)[C@H](O)[C@@H](O)[C@@H]2NC)[C@@H](N/C(N)=N\[H])[C@@H]1O [streptomycin]
bacterial inhibition after being passed through the device (E. Coli DH5-α): retained their native function

O [water]
water delivered into skin, device compared to topical application ([2]; 4 subjects, young and mature skin): significantly more water was delivered
Droplette Hydration, improvement over starting hydration ([2]; Subject 3, 1 Hour: Resting, about 50 μL sterile water by device): 58% improvement over
Topical Hydration, improvement ([2]; Subject 3, 1 Hour: Resting, about 100 μL sterile water topically, right hand): 0% improvement (back
Droplette Hydration, improvement over starting hydration ([2]; Subject 3, 2 Hours: had eaten lunch and consumed 2 cups of water, device): 55% improvement over
Topical Hydration, improvement over baseline ([2]; Subject 3, 2 Hours: had eaten lunch and consumed 2 cups of water, topical, right hand): 11% improvement over

CN[C@H](CC(C)C)C(=O)N[C@H]1C(=O)N[C@@H](CC(N)=O)C(=O)N[C@H]2C(=O)N[C@H]3C(=O)N[C@H](C(=O)N[C@H](C(=O)O)c4cc(O)cc(O)c4-c4cc3ccc4O)[C@H](O)c3ccc(c(Cl)c3)Oc3cc2cc(c3O[C@@H]2O[C@H](CO)[C@@H](O)[C@H](O)[C@H]2O[C@H]2C[C@](C)(N)[C@H](O)[C@H](C)O2)Oc2ccc(cc2Cl)[C@H]1O [vancomycin]
bacterial inhibition after being passed through the device (E. Coli DH5-α): retained their native function

Source: US20220401664A1, “FLUID DELIVERY DEVICES AND METHODS” (Droplette Inc., priority 2015, published 2022)
